# Experimental data published in US20060263802A1 (priority 2003, published 2006).
# Columns and labels:
# Assay type in all cases: binding
# [1] = test system: human monoclonal antibody CR57
# [2] = test system: human monoclonal antibody CRJA
# [3] = test system: human monoclonal antibody CRJA; remark: listed apart in the source
# [4] = test system: human monoclonal antibody CRJB
# [5] = test system: human monoclonal antibody CRJB; remark: listed apart in the source
# [6] = test system: human monoclonal antibody CR57; remark: listed apart in the source
Sequence,Binding of CR57 (10 μg/ml) to looped/cyclic peptide (PEPSCAN-ELISA signal) [1],Binding of CRJA (10 μg/ml) to looped/cyclic peptide (PEPSCAN-ELISA signal) [2],Binding of CRJA to linear peptide (PEPSCAN-ELISA signal) [3],Binding of CRJB (10 μg/ml) to looped/cyclic peptide (PEPSCAN-ELISA signal) [4],Binding of CRJB to linear peptide (PEPSCAN-ELISA signal) [5],Binding of CR57 to linear peptide (PEPSCAN-ELISA signal) [6],Binding of CR57 (10 μg/ml) to looped/cyclic peptide (PEPSCAN-ELISA) [1],Binding of CRJA (10 μg/ml) to looped/cyclic peptide (PEPSCAN-ELISA) [2],Binding of CRJB (10 μg/ml) to looped/cyclic peptide (PEPSCAN-ELISA) [4]
NYTNFVGYVTTTFKR,58,85,97,88,114,49,,,
NWKMAGDPRYEESLH,94,93,69,78,101,58,,,
YTNFVGYVTTTFKRK,71,72,76,90,104,51,,,
RPTPDACRAAYNWKM,76,96,123,51,101,77,,,
GDPRYEESLHNPYPD,64,90,96,82,98,36,,,
CLDALESIMTTKSVS,,,106,,146,101,111,123,90
PEMQSSLLQQHMELL,,,79,,133,62,72,78,82
RTVKTTKESLVIISP,88,88,103,69,120,82,,,
VTTTFKRKHFRPTPD,101,89,77,83,105,79,,,
TFKRKHFRPTPDACR,112,105,97,99,111,96,,,
RWLRTVKTTKESLVI,77,71,72,75,110,40,,,
HLRKLVPGFGKAYTI,,,116,,111,99,118,120,93
FGKAYTIFNKTLMEA,,,85,,151,90,114,96,78
VFPSGKCSGVAVSST,79,55,68,75,114,74,,,
VPGFGKAYTIFNKTL,,,96,,114,58,74,87,42
ILGPDGNVLIPEMQS,,,90,,134,125,143,100,92
AENYTNFVGYVTTTF,58,46,74,68,106,66,,,
VGYILAIKMNGFTCT,97,105,70,86,93,77,,,
CGFVDERGLYKSLKG,,,94,,115,72,85,90,76
PHVNGVFFNGIILGP,,,117,,173,93,112,107,134
DALESIMTTKSVSFR,,,105,,120,104,127,110,127
EESLHNPYPDYRWLR,121,100,85,85,123,76,,,
